Test results taken from the supplement of paper PMC8149375.

Experiments:
Details in all cases: treatment: drug + dasatinib (fixed dose, not stated); 5 days
[1] = tested on: 786-O; assay: minimum viability across doses, drug + dasatinib, relative to DMSO (fraction); higher = less growth inhibition
Method: (§1)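 Primary HTS combination arm: 8 RCC cell lines treated with 8 doses (up to 10 uM) of each library drug plus a fixed dose of dasatinib (dose not stated) for 5 days; viability read by CellTiter-Glo and normalised to DMSO. GI50 was fitted with XLfit, AUC is the area under the dose-response curve, and minimum viability is the lowest fraction of DMSO viability across doses.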

[2] = tested on: 769-P; assay: as above
Method: as §1

[3] = tested on: ACHN; assay: as above
Method: as §1

[4] = tested on: CAKI-1; assay: as above
Method: as §1

[5] = tested on: UO-31; assay: as above
Method: as §1

[6] = tested on: A498; assay: as above
Method: as §1

[7] = tested on: TK-10; assay: as above
Method: as §1

[8] = tested on: SN12C; assay: as above
Method: as §1

[9] = tested on: 786-O; assay: GI50 of drug in presence of dasatinib; higher = less potent
Method: as §1

[10] = tested on: 769-P; assay: as above
Method: as §1

[11] = tested on: ACHN; assay: as above
Method: as §1

[12] = tested on: CAKI-1; assay: as above
Method: as §1

[13] = tested on: UO-31; assay: as above
Method: as §1

[14] = tested on: A498; assay: as above
Method: as §1

[15] = tested on: TK-10; assay: as above
Method: as §1

[16] = tested on: SN12C; assay: as above
Method: as §1

[17] = tested on: 786-O; assay: AUC of dose-response viability curve, drug + dasatinib, normalised to DMSO (arbitrary (AUC of normalised viability)); higher = less growth inhibition
Method: as §1

[18] = tested on: 769-P; assay: as above
Method: as §1

[19] = tested on: ACHN; assay: as above
Method: as §1

[20] = tested on: CAKI-1; assay: as above
Method: as §1

[21] = tested on: UO-31; assay: as above
Method: as §1

[22] = tested on: A498; assay: as above
Method: as §1

[23] = tested on: TK-10; assay: as above
Method: as §1

[24] = tested on: SN12C; assay: as above
Method: as §1

| GI50 of drug [9] [nM] | GI50 of drug [11] [nM] | SMILES | minimum viability across doses [1] | minimum viability across doses [2] | minimum viability across doses [3] | minimum viability across doses [4] | minimum viability across doses [5] | minimum viability across doses [6] | minimum viability across doses [7] | minimum viability across doses [8] | GI50 of drug [10] [nM] | GI50 of drug [12] [nM] | GI50 of drug [13] [nM] | GI50 of drug [14] [nM] | GI50 of drug [15] [nM] | GI50 of drug [16] [nM] | AUC of dose-response viability curve [17] | AUC of dose-response viability curve [18] | AUC of dose-response viability curve [19] | AUC of dose-response viability curve [20] | AUC of dose-response viability curve [21] | AUC of dose-response viability curve [22] | AUC of dose-response viability curve [23] | AUC of dose-response viability curve [24] |
| --- | --- | --- | --- | --- | --- | --- | --- | --- | --- | --- | --- | --- | --- | --- | --- | --- | --- | --- | --- | --- | --- | --- | --- | --- |
| 30.3 | 7.83 | Cc1ccc([N+](=O)[O-])cc1S(=O)(=O)N(C)/N=C/c1cnc2ccc(Br)cn12.Cl [PIK-75] + Cc1nc(Nc2ncc(C(=O)Nc3c(C)cccc3Cl)s2)cc(N2CCN(CCO)CC2)n1 [dasatinib] | 0.00381 | 0.00622 | 0.00364 | 0.0337 | 0.00696 | 0.00818 | 0.124 | 0.00539 | 47.6 | 7.8 | 43 | 65.6 | 45.1 | 57.7 | 0.918 | 1.11 | 0.571 | 0.683 | 1.22 | 1.29 | 1.4 | 1.07 |
| 135 | 976 | CC(=O)Nc1nc(C)c(-c2ccc(Cl)c(S(=O)(=O)NCCO)c2)s1 [PIK-93] + Cc1nc(Nc2ncc(C(=O)Nc3c(C)cccc3Cl)s2)cc(N2CCN(CCO)CC2)n1 [dasatinib] | 0.127 | 0.352 | 0.188 | 0.068 | 0.0793 | 0.476 | 0.251 | 0.259 | 4000 | 1170 | 4320 | 8110 | 3690 | 1890 | 1.49 | 2.31 | 1.75 | 2.05 | 3.76 | 3.29 | 2.31 | 2.14 |
| 98 | 82.8 | CCn1nnc2c(N3CCOCC3)nc(-c3ccc(NC(=O)Nc4ccc(C(=O)N5CCN(C)CC5)cc4)cc3)nc21 [PKI-402] + Cc1nc(Nc2ncc(C(=O)Nc3c(C)cccc3Cl)s2)cc(N2CCN(CCO)CC2)n1 [dasatinib] | 0.00332 | 0.0547 | 0.0465 | 0.0314 | 0.00734 | 0.148 | 0.0238 | 0.0929 | 450 | 122 | 350 | 87.5 | 117 | 41.6 | 1.41 | 1.86 | 1.25 | 1.48 | 2.39 | 1.66 | 1.55 | 1.19 |
| 2740 | 1070 | CCCS(=O)(=O)Nc1ccc(F)c(C(=O)c2c[nH]c3ncc(Cl)cc23)c1F [PLX-4720] + Cc1nc(Nc2ncc(C(=O)Nc3c(C)cccc3Cl)s2)cc(N2CCN(CCO)CC2)n1 [dasatinib] | 0.212 | 0.641 | 0.127 | 0.0731 | 0.806 | 0.765 | 0.361 | 0.679 | > 10000 | 1700 | > 10000 | > 10000 | 5470 | > 10000 | 2.13 | 2.48 | 1.93 | 2.08 | 3.22 | 3 | 2.44 | 2.47 |
| 713 | 24.5 | CC(C)n1nc(-c2cc3cc(O)ccc3[nH]2)c2c(N)ncnc21 [PP242] + Cc1nc(Nc2ncc(C(=O)Nc3c(C)cccc3Cl)s2)cc(N2CCN(CCO)CC2)n1 [dasatinib] | 0.00231 | 0.0492 | 0.0314 | 0.0342 | 0.00386 | 0.152 | 0.0716 | 0.0689 | 401 | 158 | 1140 | 1350 | 253 | 357 | 1.74 | 1.86 | 1.19 | 1.51 | 2.82 | 2.41 | 1.86 | 1.74 |
| 73.8 | 132 | Nc1ncnc2c1c(-c1cnc3[nH]ccc3c1)nn2C1CCCC1 [PP-121] + Cc1nc(Nc2ncc(C(=O)Nc3c(C)cccc3Cl)s2)cc(N2CCN(CCO)CC2)n1 [dasatinib] | 0.00453 | 0.0299 | 0.0126 | 0.00718 | 0.00907 | 0.0684 | 0.0102 | 0.0517 | 415 | 126 | 896 | 1270 | 261 | 337 | 1.44 | 1.74 | 1.41 | 1.41 | 2.71 | 2.5 | 1.67 | 1.73 |

| SMILES | GI50 of drug [9] [nM] | GI50 of drug [11] [nM] | minimum viability across doses [1] | minimum viability across doses [2] | minimum viability across doses [3] | minimum viability across doses [4] | minimum viability across doses [5] | minimum viability across doses [6] | minimum viability across doses [7] | minimum viability across doses [8] | GI50 of drug [10] [nM] | GI50 of drug [12] [nM] | GI50 of drug [13] [nM] | GI50 of drug [14] [nM] | GI50 of drug [15] [nM] | GI50 of drug [16] [nM] | AUC of dose-response viability curve [17] | AUC of dose-response viability curve [18] | AUC of dose-response viability curve [19] | AUC of dose-response viability curve [20] | AUC of dose-response viability curve [21] | AUC of dose-response viability curve [22] | AUC of dose-response viability curve [23] | AUC of dose-response viability curve [24] |
| --- | --- | --- | --- | --- | --- | --- | --- | --- | --- | --- | --- | --- | --- | --- | --- | --- | --- | --- | --- | --- | --- | --- | --- | --- |
| Cc1ccccc1-n1c(Cn2ncc3c(N)ncnc32)nc2cccc(C)c2c1=O [PIK-293] + Cc1nc(Nc2ncc(C(=O)Nc3c(C)cccc3Cl)s2)cc(N2CCN(CCO)CC2)n1 [dasatinib] | > 10000 | 2540 | 0.6 | 0.685 | 0.539 | 0.655 | 1.15 | 0.782 | 0.66 | 0.666 | > 10000 | > 10000 | > 10000 | > 10000 | > 10000 | > 10000 | 2.24 | 2.55 | 2.17 | 2.38 | 4.4 | 3.17 | 2.47 | 2.43 |
